Results taken from US20240174671A1, “New 2,3-Dihydro-1H-pyrrolo[3,2-b]pyridine Derivatives as Sigma Ligands” (ACONDICIONAMIENTO TARRASENSE, priority 2021, published 2024).
Read-outs that look alike come from different tables or passages of the source.

Key:
[1] = molecular target: T1, human σ2/TMEM97 receptor (Homo sapiens, UniProt Q5BJF2); assay: Binding assay to human σ2/TMEM97 receptor ([3H]-DTG); settings: transfected HEK-293 membranes, 10 nM [3H]-DTG, 25° C., 120 minutes; read-out: Binding σ-[…] (binding to σ2-receptor expressed as Ki)
T1 construct: expressed in transfected cells; host or cells: HEK-293
T1 sequence (Q5BJF2 whole entry): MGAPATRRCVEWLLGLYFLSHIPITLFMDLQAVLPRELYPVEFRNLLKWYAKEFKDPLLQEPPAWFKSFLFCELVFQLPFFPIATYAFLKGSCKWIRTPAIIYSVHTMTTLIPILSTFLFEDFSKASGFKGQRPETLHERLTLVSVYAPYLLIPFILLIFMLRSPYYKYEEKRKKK
Procedure, shortened: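 Membranes from transfected HEK-293 cells incubated with 10 nM [3H]-DTG in 50 mM Tris-HCl pH 8.0, 120 min at 25 °C; non-specific binding defined with 10 μM haloperidol. Bound radioactivity counted after filtration; compounds tested as % inhibition at 1 or 10 μM or at five concentrations for Ki.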

[2] = molecular target: T2, human σ1 receptor (Homo sapiens, UniProt Q99720); assay: Human σ1 receptor radioligand assay ([3H](+)-pentazocine); type: binding
T2 construct: expressed in transfected cells; host or cells: HEK-293
T2 sequence (Q99720 whole entry): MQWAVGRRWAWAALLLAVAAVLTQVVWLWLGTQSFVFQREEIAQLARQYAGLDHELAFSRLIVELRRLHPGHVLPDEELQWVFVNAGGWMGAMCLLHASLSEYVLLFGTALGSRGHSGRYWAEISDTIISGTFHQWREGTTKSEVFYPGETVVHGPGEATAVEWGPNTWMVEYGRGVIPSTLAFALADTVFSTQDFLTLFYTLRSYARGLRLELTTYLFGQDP
Procedure, shortened: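 Binding used [3H](+)-pentazocine, 120 min at 37° C, with non-specific binding defined by 10 μM haloperidol. Bound radioligand was collected by filtration, washed with ice-cold 10 mM Tris-HCl pH 7.4 and counted by scintillation.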

[3] = transfected HEK-293 membranes, 5 nM [3H](+)-pentazocine, 37° C., 120 minutes, read-out: Binding σ-[…] (binding to σ1-receptor expressed as Ki)

With CC1(C)CN(C(=O)NCC2CCN(CCc3ccccc3)CC2)c2cccnc21 [Example 70, 3,3-dimethyl-N-((1-phenethylpiperidin-4-yl)methyl)-2,3-dihydro-1H-pyrrolo[3,2-b]pyridine-1-carboxamide] the Ki [1] was 100 to 500 nM and the Ki [2, 3] was over 1000 nM.
Work on Cc1ccc2c(n1)C(C)(C)CN2C(=O)N1CCC2(CCN(C3CCOCC3)CC2)C1 [Example 110, (8-(tetrahydro-2H-pyran-4-yl)-2,8-diazaspiro[4.5]decan-2-yl)(3,3,5-trimethyl-2,3-dihydro-1H-pyrrolo[3,2-b]pyridin-1-yl)methanone] yielded a Ki [1] of under 100 nM and a Ki [2, 3] of over 1000 nM.
Work on Cc1ccc2c(n1)C(C)(C)CN2C(=O)N1CCC(N(C)Cc2cccc(C#N)c2)CC1 [Example 118, 3-((methyl(1-(3,3,5-trimethyl-2,3-dihydro-1H-pyrrolo[3,2-t]pyridine-1-carbonyl)piperidin-4-yl)amino)methyl)benzonitrile] yielded a Ki [1] of under 100 nM and a Ki [2, 3] of over 1000 nM.
Compound CN(Cc1ccc(F)c(F)c1)C1CCN(C(=O)N2CC(C)(C)c3ncccc32)CC1 [Example 79, (4-((3,4-Difluorobenzyl)(methyl)amino)piperidin-1-yl)(3,3-dimethyl-2,3-dihydro-1H-pyrrolo[3,2-b]pyridin-1-yl)methanone] has a Ki [1] of under 100 nM and a Ki [2, 3] of 100 to 500 nM.
With CC1(C)CN(C(=O)N2CCC3(CCN(Cc4ccc(C#N)c(F)c4)CC3)C2)c2cccnc21 [Example 142, 4-((2-(3,3-dimethyl-2,3-dihydro-1H-pyrrolo[3,2-b]pyridine-1-carbonyl)-2,8-diazaspiro[4.5]decan-8-yl)methyl)-2-fluorobenzonitrile] the Ki [1] was under 100 nM and the Ki [2, 3] was under 100 nM.
Cc1ccc2c(n1)C(C)(C)CN2C(=O)C1CCN(Cc2ccccc2)CC1 [Example 123, (1-benzylpiperidin-4-yl)(3,3,5-trimethyl-2,3-dihydro-1H-pyrrolo[3,2-b]pyridin-1-yl)methanone] was tested, and the Ki [1] was 500 to 1000 nM and the Ki [2, 3] was under 100 nM.
Work on Cc1ccc2c(n1)C(C)(C)CN2C(=O)[C@H]1CC[C@H](N(C)Cc2ccc(F)c(F)c2)CC1 [Example 170, ((1r,4r)-4-((3,4-difluorobenzyl)(methyl)amino)cyclohexyl)(3,3,5-trimethyl-2,3-dihydro-1H-pyrrolo[3,2-b]pyridin-1-yl)methanone] yielded a Ki [1] of under 100 nM and a Ki [2, 3] of under 100 nM.
CC1(C)CN(C(=O)NC2CCN(Cc3ccc(F)c(F)c3)CC2)c2cccnc21 [Example 46, N-(1-(3,4-difluorobenzyl)piperidin-4-yl)-3,3-dimethyl-2,3-dihydro-1H-pyrrolo[3,2-b]pyridine-1-carboxamide] was tested, and the Ki [1] was over 1000 nM and the Ki [2, 3] was under 100 nM.
CC1(C)CN(C(=O)N2CCC3(CCN(Cc4cc(C#N)c(F)cc4F)CC3)C2)c2cccnc21 [Example 158, 5-((2-(3,3-dimethyl-2,3-dihydro-1H-pyrrolo[3,2-b]pyridine-1-carbonyl)-2,8-diazaspiro[4.5]decan-8-yl)methyl)-2,4-difluorobenzonitrile] was tested, and the Ki [1] was under 100 nM and the Ki [2, 3] was under 100 nM.
CC(C)CCN[C@H]1CCCCN(C(=O)N2CCc3ncccc32)C1 [Example 121, (S)-(2,3-dihydro-1H-pyrrolo[3,2-b]pyridin-1-yl)(3-(isopentylamino)azepan-1-yl)methanone] was tested, and the Ki [1] was 100 to 500 nM and the Ki [2, 3] was 100 to 500 nM.
With CC1(C)CN(C(=O)N2CCC3(CCN(Cc4ccccc4F)CC3)C2)c2cccnc21 [Example 141, (3,3-dimethyl-2,3-dihydro-1H-pyrrolo[3,2-b]pyridin-1-yl)(8-(2-fluorobenzyl)-2,8-diazaspiro[4.5]decan-2-yl)methanone] the Ki [1] was under 100 nM and the Ki [2, 3] was under 100 nM.
In the case of CC1(C)CN(C(=O)N2CCC3(CCN(Cc4cc(C#N)c(F)cc4F)CC3)CC2)c2cccnc21 [Example 167, 5-((9-(3,3-dimethyl-2,3-dihydro-1H-pyrrolo[3,2-b]pyridine-1-carbonyl)-3,9-diazaspiro[5.5]undecan-3-yl)methyl)-2,4-difluorobenzonitrile], the Ki [1] is reported as under 100 nM and the Ki [2, 3] is reported as under 100 nM.
In the case of Cc1ccc2c(n1)C(C)(C)CN2C(=O)[C@H]1CC[C@H](N(C)Cc2ccc(F)cn2)CC1 [Example 179, ((1r,4r)-4-(((5-fluoropyridin-2-yl)methyl)(methyl)amino)cyclohexyl)(3,3,5-trimethyl-2,3-dihydro-1H-pyrrolo[3,2-b]pyridin-1-yl)methanone], the Ki [1] is reported as 100 to 500 nM and the Ki [2, 3] is reported as under 100 nM.
Cc1ccc2c(n1)C(C)(C)CN2C(=O)NC1CCN(Cc2ccccc2)CC1 [Example 1, N-(1-benzylpiperidin-4-yl)-3,3,5-trimethyl-2,3-dihydro-1H-pyrrolo[3,2-b]pyridine-1-carboxamide] showed a Ki [1] of over 1000 nM and a Ki [2, 3] of under 100 nM.
CC1(C)CN(C(=O)N2CCC3(CCN(Cc4cccc(C#N)c4)CC3)C2)c2cccnc21 [Example 90, 3-((2-(3,3-dimethyl-2,3-dihydro-1H-pyrrolo[3,2-b]pyridine-1-carbonyl)-2,8-diazaspiro[4.5]decan-8-yl)methyl)benzonitrile] was tested, and the Ki [1] was under 100 nM and the Ki [2, 3] was 100 to 500 nM.
Cc1ccc2c(n1)C(C)(C)CN2C(=O)[C@H]1CC[C@H](N(C)Cc2cccc(F)c2)CC1 [Example 169, ((1r,4r)-4-((3-fluorobenzyl)(methyl)amino)cyclohexyl)(3,3,5-trimethyl-2,3-dihydro-1H-pyrrolo[3,2-b]pyridin-1-yl)methanone] gave a Ki [1] of under 100 nM and a Ki [2, 3] of under 100 nM.
With CN(Cc1cc(F)ccc1F)[C@H]1CC[C@H](C(=O)N2CC(C)(C)c3ncccc32)CC1 [Example 176, ((1r,4r)-4-((2,5-difluorobenzyl)(methyl)amino)cyclohexyl)(3,3-dimethyl-2,3-dihydro-1H-pyrrolo[3,2-b]pyridin-1-yl)methanone] the Ki [1] was under 100 nM and the Ki [2, 3] was under 100 nM.
Cc1ccc2c(n1)C(C)(C)CN2C(=O)[C@H]1CC[C@H](N(C)Cc2cccc(F)c2F)CC1 [Example 174, ((1r,4r)-4-((2,3-difluorobenzyl)(methyl)amino)cyclohexyl)(3,3,5-trimethyl-2,3-dihydro-1H-pyrrolo[3,2-b]pyridin-1-yl)methanone] was tested, and the Ki [1] was under 100 nM and the Ki [2, 3] was under 100 nM.
Cc1ccc2c(n1)C(C)(C)CN2C(=O)NC1CCN(Cc2cccc(C#N)c2)CC1 [Example 23, N-(1-(3-cyanobenzyl)piperidin-4-yl)-3,3,5-trimethyl-2,3-dihydro-1H-pyrrolo[3,2-b]pyridine-1-carboxamide] was tested, and the Ki [1] was over 1000 nM and the Ki [2, 3] was 100 to 500 nM.
Cc1ccc2c(n1)C(C)(C)CN2C(=O)[C@H]1CC[C@H](N(C)Cc2ccc(F)cc2F)CC1 [Example 172, ((1r,4r)-4-((2,4-difluorobenzyl)(methyl)amino)cyclohexyl)(3,3,5-trimethyl-2,3-dihydro-1H-pyrrolo[3,2-b]pyridin-1-yl)methanone] was tested, and the Ki [1] was under 100 nM and the Ki [2, 3] was under 100 nM.
With CN(CCc1ccccc1)[C@H]1CCCN(C(=O)N2CCc3ncccc32)C1 [Example 53, (S)-(2,3-dihydro-1H-pyrrolo[3,2-b]pyridin-1-yl)(3-(methyl(phenethyl)amino)piperidin-1-yl)methanone] the Ki [1] was 100 to 500 nM and the Ki [2, 3] was 100 to 500 nM.
Work on CC1(C)CN(C(=O)N2CCC3(CCN(Cc4cc(F)ccc4F)CC3)C2)c2cccnc21 [Example 148, (8-(2,5-difluorobenzyl)-2,8-diazaspiro[4.5]decan-2-yl)(3,3-dimethyl-2,3-dihydro-1H-pyrrolo[3,2-b]pyridin-1-yl)methanone] yielded a Ki [1] of under 100 nM and a Ki [2, 3] of under 100 nM.
Compound Cc1ccc2c(n1)C(C)(C)CN2C(=O)N1CCC2(CC1)CN(Cc1ccccc1)C2 [Example 93, (2-benzyl-2,7-diazaspiro[3.5]nonan-7-yl)(3,3,5-trimethyl-2,3-dihydro-1H-pyrrolo[3,2-b]pyridin-1-yl)methanone] has a Ki [1] of 100 to 500 nM and a Ki [2, 3] of 100 to 500 nM.
COc1ccc(CN(C)C2CCN(C(=O)N3CC(C)(C)c4nc(C)ccc43)CC2)cc1 [Example 58, (4-((4-methoxybenzyl)(methyl)amino)piperidin-1-yl)(3,3,5-trimethyl-2,3-dihydro-1H-pyrrolo[3,2-b]pyridin-1-yl)methanone] gave a Ki [1] of 100 to 500 nM and a Ki [2, 3] of 100 to 500 nM.
With Cc1ccc2c(n1)C(C)(C)CN2C(=O)N1CCC(N(C)Cc2cccc(C(=O)N(C)C)c2)CC1 [Example 63, N, N-dimethyl-3-((methyl(1-(3,3,5-trimethyl-2,3-dihydro-1H-pyrrolo[3,2-b]pyridine-1-carbonyl)piperidin-4-yl)amino)methyl)benzamide] the Ki [1] was over 1000 nM and the Ki [2, 3] was over 1000 nM.
Compound CN(C)[C@@H](CNC(=O)N1CC(C)(C)c2ncc(F)cc21)c1ccccc1 [Example 20, (R)—N-(2-(dimethylamino)-2-phenylethyl)-6-fluoro-3,3-dimethyl-2,3-dihydro-1H-pyrrolo[3,2-b]pyridine-1-carboxamide] has a Ki [1] of over 1000 nM and a Ki [2, 3] of under 100 nM.
Compound COc1ccc(C(CNC(=O)N2CC(C)(C)c3nc(C)ccc32)N(C)C)cc1 (stereo not drawn) [Example 13, N-(2-(dimethylamino)-2-(4-methoxyphenyl)ethyl)-3,3,5-trimethyl-2,3-dihydro-1H-pyrrolo[3,2-b]pyridine-1-carboxamide] has a Ki [1] of over 1000 nM and a Ki [2] of under 100 nM.
CC1(C)CN(C(=O)N2CCC3(CCN(Cc4ncccc4F)CC3)C2)c2cccnc21 [Example 153] showed a Ki [1] of 100 to 500 nM and a Ki [2, 3] of over 1000 nM.
CC1(C)CN(C(=O)N2CCC3(CCN(Cc4ccc(C(F)(F)F)nc4)CC3)C2)c2cccnc21 [Example 155, (3,3-dimethyl-2,3-dihydro-1H-pyrrolo[3,2-b]pyridin-1-yl)(8-((6-(trifluoromethyl)pyridin-3-yl)methyl)-2,8-diazaspiro[4.5]decan-2-yl)methanone] gave a Ki [1] of under 100 nM and a Ki [2, 3] of over 1000 nM.
For COc1cccc(CN(C)C2CCN(C(=O)N3CC(C)(C)c4nc(C)ccc43)CC2)c1 [Example 59], the Ki [1] was under 100 nM and the Ki [2, 3] was 500 to 1000 nM.
